Assay results reported in US6359015B1, “Method for antagonizing inhibition effects of alcohol on cell adhesion” (The United States of America as represented by the …, priority 2000, dated 2002).
Entries after “also recorded” stand apart in the source; their conditions may differ. Like-named read-outs stand apart in the source and are kept apart here.

T1: GIRK ¼ potassium channel (Homo sapiens, UniProt P48544+P48549)
T1 sequence (P48549 1-501): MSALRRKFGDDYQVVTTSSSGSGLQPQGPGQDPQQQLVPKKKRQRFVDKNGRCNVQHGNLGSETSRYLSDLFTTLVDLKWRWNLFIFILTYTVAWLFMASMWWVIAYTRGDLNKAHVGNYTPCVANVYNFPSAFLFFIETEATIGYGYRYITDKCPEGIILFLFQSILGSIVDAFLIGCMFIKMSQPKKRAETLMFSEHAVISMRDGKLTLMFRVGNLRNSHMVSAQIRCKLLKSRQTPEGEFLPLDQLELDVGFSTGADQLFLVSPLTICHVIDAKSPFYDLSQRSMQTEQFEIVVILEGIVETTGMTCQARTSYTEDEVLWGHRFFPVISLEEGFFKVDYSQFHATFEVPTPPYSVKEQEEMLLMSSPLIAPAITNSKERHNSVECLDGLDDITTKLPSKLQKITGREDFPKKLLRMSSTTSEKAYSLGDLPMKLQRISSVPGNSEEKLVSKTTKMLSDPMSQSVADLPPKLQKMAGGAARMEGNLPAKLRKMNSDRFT
T1 sequence (P48544 1-419): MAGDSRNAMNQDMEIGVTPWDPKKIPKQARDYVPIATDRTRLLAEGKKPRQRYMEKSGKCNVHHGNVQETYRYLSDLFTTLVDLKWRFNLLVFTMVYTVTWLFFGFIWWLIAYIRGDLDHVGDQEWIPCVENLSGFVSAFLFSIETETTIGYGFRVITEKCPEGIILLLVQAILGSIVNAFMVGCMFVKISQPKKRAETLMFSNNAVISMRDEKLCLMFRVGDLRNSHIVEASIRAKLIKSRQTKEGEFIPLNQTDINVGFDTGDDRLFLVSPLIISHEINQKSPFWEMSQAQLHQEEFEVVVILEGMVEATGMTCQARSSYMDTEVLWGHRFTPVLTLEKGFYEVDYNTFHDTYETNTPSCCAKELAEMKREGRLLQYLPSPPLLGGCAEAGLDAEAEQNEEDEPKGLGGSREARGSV

B1: BMP-7: growth factor that induces expression of L1 in neural cells (protein, UniProt P18075 293-431, looked up)
Bone morphogenetic protein 7: STGSKQRSQNRSKTPKNQEALRMANVAENSSSDQRQACKKHELYVSFRDLGWQDWIIAPEGYAAYYCEGECAFPLNSYMNATNHAIVQTLVHFINPETVPKPCCAPTQLNAISVLYFDDSSNVILKKYRNMVVRACGCH

Key:
[1] = system: BMP-7 treated NG108-15 cells; assay: Antagonism of short-chain alcohol inhibition of cell adhesion in BMP-7 treated NG108-15 cells; assay type: cell-based, rat and mouse; details: for Antagonism of inhibition of cell-cell adhesion by 1-butanol (in words): 2 mM 1-butanol, BMP-7 treated NG108-15 cells; for Antagonism of the effects of 3-methyl-1-butanol on cell adhesion (in words): 3 mM 3-methyl-1-butanol; for Antagonism of the effects of ethanol on cell adhesion (in words): 100 mM ethanol
Protocol: (§1) Cell-cell adhesion was measured using a modified short-term aggregation assay of sub-confluent cells (Reference 12). Cells were detached by gentle agitation, mechanically dissociated to obtain a single-cell suspension, and diluted in PBS supplemented with 0.1 mg/ml DNase to 350,000 cells/ml for the NIH/3T3 cells, and 250,000 cells/ml for the NG108-15 cells. One ml of the cell suspension was added per well (4.5 cm^2) of a 12-well plate. After addition of the alcohols, the cells were gently mixed and mechanically shaken for 30 minutes at room temperature on an orbital shaker set at 60 to 80 rpm. Cells were viewed at a final magnification of 200×, and each well was scored for single and adherent cells in five or six microscopic fields of view. We counted approximately 100 cells per field of view and 600 cells per well. The percentage of adherent cells was calculated for each microscopic field of view and averaged. To calculate the magnitude of ethanol inhibition, we subtracted the values for cell adhesion with the Vec-1A5 cells from those of the 2B2-L1 or 2A2-L1 cell lines. Similarly, the values for cell adhesion in NG108-15 cells cultured in serum-free medium were subtracted from those of NG108-15 cells treated with BMP-7.

NG108-15 cells = assay: BMP-7 morphogenesis (cell clusters) in NG108-15 cells; assay type: cell-based, rat and mouse; details: for Antagonism of ethanol inhibition of BMP-7 morphogenesis: 50 mM ethanol and 0.05 mM 1-octanol, 3 days
Protocol: NG108-15 cells were plated from suspensions of single cells at a density of 50,000 cells/well in poly-D-lysine-coated, 6-well plated containing serum-free medium in the absence or presence of BMP-7, as described (References 17-18). […] Control cultures were treated similarly. The media for all cells was replaced daily following the addition of ethanol. […] A cell cluster was defined as a group of three or more cells that adhered to each other along at least one quarter of their cell bodies (Reference 19). The percentage of cells in clusters was calculated by dividing the number of cells present in clusters by the total number of cells (150 to 200) in each field. Values obtained for each field of a treatment group were then averaged.
Treatment with BMP-7 for 48 hours causes NG108-15 cells to grow in clusters of adherent cells (BMP-7 morphogenesis), rather than as predominantly single cells.
The percentage of cells in clusters of three or more cells was scored from two separate fields viewed under 200×magnification.

[2] = system: NIH/3T3-L1 (2B2-L1) cells; assay: Antagonism of 1-butanol inhibition of cell adhesion in NIH/3T3-L1 (2B2-L1) cells; assay type: cell-based, rat
Protocol: as §1, with “BMP-7. […]” for “BMP-7.”

GIRK ¼ potassium channel = target: T1, GIRK ¼ potassium channel; details: Reference 20; cited from earlier work
[3] = system: BMP-7 treated NG108-15 neuroblastoma×glioma cells; assay: Cell-cell adhesion (short-term aggregation) assay in BMP-7 treated NG108-15 cells; assay type: cell-based, rat and mouse; details: for Inhibition of cell-cell adhesion (in words): both cellular systems (NG108-15 + BMP-7 and L1-expressing NIH/3T3); for Inhibition of cell-cell adhesion at higher concentrations (in words): concentrations 5-10 fold higher than those reported in Table 1
Protocol: NIH/3T3 cells were cultured in Dulbecco's minimum Eagle medium (DMEM) (Life Technologies, Gaithersburg, Md.) supplemented with 10% normal calf serum (Intergen, Purchase, N.Y.) and 400 μg/ml G418 (Life Technologies). NG108-15 neuroblastoma×glioma cells (passages 21 to 30) were plated in serum-free, defined medium (Reference 16). At the start of the morphogenetic and cell adhesion assays, serum-free medium containing BMP-7 (Creative BioMolecules, Hopkinton, Ma.) (1-40 ng/ml, final) was added daily to the NG108-15 cells. Both cell lines were cultured at 37° C., in an atmosphere of 90% air and 10% CO2. Three NIH/3T3 subclones were utilized in these studies: 2B2-L1, 2A2-L1 and Vec-1A5. The 2B2-L1 and 2A2-L1 cell lines are subclones derived from a stable transfection of NIH/3T3 cells with the human L1 cDNA, and Vec-1A5 is a subclone from a transfection with the empty expression vector (Reference 12).
Cells were cultured and cell adhesion assays were performed in the absence and presence of the alcohols listed below in Table 1. The concentrations of alcohols used in the adhesion assays were calculated to produce membrane concentrations equivalent to 50-100 mM ethanol. Membrane/buffer partition coefficients (Pm/b) were obtained or were calculated from published octanol/water partition coefficients (Reference 15). Molar volumes were obtained from published sources (References 15) or were calculated from molecular weights and densities at 20° C.
as §1
We tested the effects of a series of alcohols on cell-cell adhesion in two well-characterized model systems. NG108-15 cells were incubated for 48 hours in a serum-free medium supplemented with 10-20 ng/ml BMP-7 to induce L1 and N-CAM gene expression (Reference 10). Parallel experiments were performed using two ethanol-sensitive NIH/3T3 cell lines transfected with human L1 (2B2-L1 and 2A2-L1) (Reference 12) and a NIH/3T3 cell line transfected with the empty expression vector (1A5-V).

[4] = published or calculated from molecular weight and density at 20° C.; cited from earlier work
[5] = from published source or octanol/water partition coefficient divided by 5; cited from earlier work
[6] = NG108-15, read-out: IC50 for antagonism of 1-butanol (and ethanol) inhibition of cell-cell adhesion

| Molecule | Inhibition of cell-cell adhesion (in words) [3] | Inhibition of cell-cell adhesion at higher concentrations (in words) [3] | Vm molar volume [4] | P(m/b) membrane/buffer partition coefficient [5] | further results |
| --- | --- | --- | --- | --- | --- |
| CCCCCCCCO [1-octanol] | not inhibited | inactivity | 158 mL/mol | 189 | Antagonism of inhibition of cell-cell adhesion by 1-butanol (in words) [1]: completely abolished; Antagonism of the effects of 3-methyl-1-butanol on cell adhesion (in words) [1]: abolished; Antagonism of the effects of ethanol on cell adhesion (in words) [1]: abolished; IC50 [1, 6]: 3.6 µM; IC50 ([1]; NG108-15, read-out: IC50 for antagonism of 1-butanol inhibition of cell-cell adhesion): 3.6 µM; Potency of antagonism relative to 1-pentanol ([1]; ratio of IC50 values): approximately 200 times; Antagonism of ethanol inhibition of BMP-7 morphogenesis (NG108-15 cells): antagonized; Antagonism of ethanol inhibition of BMP-7 morphogenesis (NG108-15 cells; listed as Octanol): completely abolished; Mechanism of antagonism of 1-butanol inhibition (in words) ([2]; 1-octanol 5 and 50 μM, 2B2-L1 cells): complete, reversible, and non-competitive; also recorded: reduced the maximal effectiveness; Antagonism of ethanol enhancement of GIRK ¼ potassium channel activity (GIRK ¼ potassium channel): did not antagonize |
| CCCCCO [1-pentanol] | not inhibited | inactivity | 108 mL/mol | 5.02 | Antagonism of inhibition of cell-cell adhesion by 1-butanol (in words) [1]: completely abolished; Antagonism of the effects of 3-methyl-1-butanol on cell adhesion (in words) [1]: abolished; Antagonism of the effects of ethanol on cell adhesion (in words) [1]: abolished; IC50 [1, 6]: 715 µM |
| CCC(O)CC [3-pentanol] |  |  | 107 mL/mol | 4.69 |  |
| C=CCCO [3-buten-1-ol] | abolished activity | inactivity | 86 mL/mol | 1.00 |  |
| 1-butanol | maximally inhibited |  |  |  | 1-butanol inhibition of cell-cell adhesion, control ([2]; 2B2L1 cells, no 1-octanol pretreatment, washed): 43.6±3.0% |
| CC(C)CCO [3-methyl-1-butanol] | did not reduce activity |  | 109 mL/mol | 2.89 |  |
| CCCC(C)(C)O [2-methyl-2-pentanol] |  |  | 122 mL/mol | 5.20 |  |
| CC(O)C1CC1 (centres unmarked) [cyclopropyl-ethanol, cyclopropylethanol] | abolished activity | inactivity | 91 mL/mol | 0.83 |  |
| OC1CCC1 [cyclobutanol] | inhibited |  | 78 mL/mol | 0.91 |  |
| OC1CCCC1 [cyclopentanol] | did not | inactivity | 92 mL/mol | 2.24 |  |
| CC(C)c1cccc(C(C)C)c1O [propofol] | did not inhibit |  | 86 mL/mol | 1.00 |  |
| CC(C)CO [2-methyl-1-propanol] | active |  | 90 mL/mol | 1.10 |  |
| OCC1CC1 [cyclopropyl methanol] | active |  | 71 mL/mol | 0.71 |  |
| CCCC(C)O (centres unmarked) [2-pentanol] | abolished activity |  | 109 mL/mol | 4.38 |  |
| OCc1ccccc1 [benzyl alcohol] | did not |  | 104 mL/mol | 2.52 |  |
| CC(C)CCCO [4-methyl-1-pentanol] |  | inactivity | 126 mL/mol | 9.36 |  |
| CC(C)(C)CCO [3,3-dimethyl-1-butanol] | did not reduce activity |  | 121 mL/mol | 5.77 | Potency for inhibition of cell adhesion relative to 2-ethyl-1-butanol ([3]; IC50 comparison, FIG. 2): more than four times as potent |
| CCC(CC)CO [2-ethyl-1-butanol] | did not reduce activity |  | 123 mL/mol | 9.14 |  |
| CCCO [1-propanol] | active |  |  |  |  |
| B1 |  |  |  |  | Percentage of cell clusters (NG108-15 cells; 0.1-40 ng/ml BMP-7, 3 days): dose-dependent increase; Percentage of adherent NG108-15 cells ([3]; 48 hours, 10-20 ng/ml BMP-7, control 17.0±[…]): 50.0±1.4% |
